Tested on: human keratinocytes (HaCaT) cells
Experiment: Annexin-V externalization (pro-apoptotic effect)
Type: cell-based
Settings: 48 h, vs control
Experimental: Pro-apoptotic effect of IS217 was evaluated in human keratinocytes (HaCaT) cells by using the Annexin-V externalization. In this study, cells were plated and incubated for about 24 hours by using dulbecco's modified eagle's medium (DMEM) with about 10% fetal bovine serum (FBS) and cells were sera starved using about 0.1% FBS for about 3 hours. HaCaT cells were treated with IS217 at about 0 hours and about 24 hours in concentration range of from about 100 μg/ml to about 5000 μg/ml and incubated for about 24 hours. Curcumin (1 μM-50 μM) was used as positive control. After about 48 hours of first treatment, cells were incubated with Annexin-V reagent and subsequently analyzed by flow cytometry (Guava technologies) for identification of cells population.

H-FAKKFAKKFK-OH [IS217, H-Phe-Ala-Lys-Lys-Phe-Ala-Lys-Lys-Phe-Lys-OH]
increase in necrotic cells (100 μg/ml): 3.6 fold | increase in late apoptotic cells (1000 μg/ml): 1.7 fold | increase in late apoptotic cells (2000 μg/ml): 3.4 fold | increase in necrotic cells (2000 μg/ml): 1.4 fold | increase in late apoptotic cells (5000 μg/ml): 5.6 fold | increase in necrotic cells (5000 μg/ml): 3.1 fold | increase in early apoptotic cells (HaCaT, 100-5000 μg/ml): no increase
